From publication PMC4501059, “Responding to the challenge of untreatable gonorrhea: ETX0914, a first-in-class agent with a distinct mechanism-of-action against bacterial Type II topoisomerases” (Scientific Reports, 2015) come the findings set out here.

The subject of data set [1] is S. aureus AP607004 (MRQR). Put plainly: MIC (CLSI broth microdilution). The class given is cell-based.
Data set [2] concerns S. pneumoniae ARC2205 (ERQR). Put plainly: MIC (CLSI broth microdilution). The class given is cell-based.
Data set [3] deals with S. pneumoniae ATCC49619. Put plainly: MIC (CLSI broth microdilution). The class given is cell-based.
The subject of data set [4] is S. aureus ARC516. Put plainly: MIC (CLSI broth microdilution). The class given is cell-based.
The nature of data set [5]: Dog pharmacokinetics. The class given is in vivo, Beagle dog. Particulars: beagle, dog, plasma. Here is the method: AZD0914 was analyzed in mouse, rat, dog, monkey plasma using a qualified method which was later validated for human plasma analysis. The validated human method is described below and is representative of the approach taken in other species. AZD0914 was determined in human plasma prepared with K2EDTA as an anticoagulant. AZD0914 and an internal standard (^13C2, ^15N2 AZD0914) were extracted from plasma with tert- butyl methyl ether. After evaporating to dryness under a stream of nitrogen, the residue was reconstituted and quantitated by reverse phase HPLC-MS/MS against a standard curve from 1.00 to 5000 ng/ml. Separation was achieved using a gradient which went from 55% to 85% methanol:acetonitrile (1:1) containing 0.2% formic acid as mobile phase B and 0.2% formic acid in water as mobile phase A at a flow rate of 0.60 ml/min through a Phenomonex Gemini C18 column (50 x 2.0 mm column, […]) heated using a Shimadzu CTO-20AC set to 40 °C. AZD0914 was detected in multiple reaction monitoring (MRM) mode by positive ion electrospray ionization using a Sciex API5500 (Toronto, Canada) mass spectrometer. The ion spray voltage was set to 5500 V and turboionspray temperature was 650 °C. AZD0914 was quantitated using the MRM transition 488.2 → 348.2 using a collision energy of 29 eV. The internal standard, (^13C2, ^15N2 AZD0914), was monitored using identical conditions except for the MRM transition of 492.2 → 348.2.

Data set [6] deals with hERG (Homo sapiens, UniProt Q12809). In words: In vitro ion channel function. To be noted: hERG IC50, K^+ rectifying current/QT interval.
For data set [7], the system named is N. gonorrhoeae ARC4676 (QR). The class given is cell-based.
In data set [8] the test system is N. gonorrhoeae ATCC49226. In words: MIC (CLSI agar dilution). The class given is cell-based.
A short description of data set [9]: Human plasma protein binding (PPB). Particulars: plasma.
A short description of data set [10]: physchem.
The test system of data set [11] is mouse lymphoma cells. Put plainly: in vitro mouse micronucleus aberration assay (MMA). The class given is cell-based. To be noted: for Micronucleus NOEL: in vitro. Here is the method:
(§1) In vitro toxicology. Experiments for assessing micronuclei in mouse lymphoma cells^19 myeloid cytotoxicity^20 and erythroid cytotoxicity^21 were performed as described previously.

Data set [12] has as its target hCav1.2 (Homo sapiens, UniProt Q13936). In words: In vitro ion channel function. The class given is cell-based. To be noted: hCav1.2 IC50, Ca^2+ entry into excitable cells. The text has this:
(§2) Supplement srep11827-s1.doc, table 3 | column: Table S2: In vitro ion channel function IC50 (µM)

The target in data set [13] is hNav1.5 (Homo sapiens, UniProt Q14524). Put plainly: In vitro ion channel function. The class given is cell-based. Particulars: hNav1.5 IC50, Initiation of cardiac action potential/QRS interval.
From the text: as §2

Data set [14] deals with Iks/Kv7.1 (Homo sapiens, UniProt P51787). Put plainly: In vitro ion channel function. The class given is cell-based. Particulars: Iks/Kv7.1 IC50, Slowly activating K^+ delayed rectifier.
From the text: as §2

Data set [15] deals with Kv1.5 (Homo sapiens, UniProt P22460). In words: In vitro ion channel function. The class given is cell-based. Particulars: Ikr/Kv1.5 IC50, Rapidly activating K^+ delayed rectifier.
Kv1.5, sequence (P22460 whole entry): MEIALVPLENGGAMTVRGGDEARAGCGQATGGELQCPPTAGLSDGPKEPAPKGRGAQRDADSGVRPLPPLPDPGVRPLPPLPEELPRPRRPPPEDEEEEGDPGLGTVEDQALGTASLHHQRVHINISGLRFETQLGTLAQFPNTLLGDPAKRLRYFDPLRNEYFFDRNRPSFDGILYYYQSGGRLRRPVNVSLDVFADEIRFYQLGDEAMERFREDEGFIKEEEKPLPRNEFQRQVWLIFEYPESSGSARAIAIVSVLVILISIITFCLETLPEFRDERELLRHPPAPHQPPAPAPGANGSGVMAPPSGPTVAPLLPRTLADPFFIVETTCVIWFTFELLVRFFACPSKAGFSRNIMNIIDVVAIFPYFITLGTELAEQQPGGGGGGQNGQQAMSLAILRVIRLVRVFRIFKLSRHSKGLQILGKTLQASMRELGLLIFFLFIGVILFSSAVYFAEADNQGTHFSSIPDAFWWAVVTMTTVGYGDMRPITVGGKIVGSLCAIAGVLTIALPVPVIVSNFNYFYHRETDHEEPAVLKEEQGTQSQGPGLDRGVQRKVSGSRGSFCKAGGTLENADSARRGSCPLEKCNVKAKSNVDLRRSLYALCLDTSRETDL
From the text: as §2

For data set [16], the target named is T1, Ito/Kv4.3 (Homo sapiens, UniProt Q9UK17).
T1 sequence (Q9UK17 1-655): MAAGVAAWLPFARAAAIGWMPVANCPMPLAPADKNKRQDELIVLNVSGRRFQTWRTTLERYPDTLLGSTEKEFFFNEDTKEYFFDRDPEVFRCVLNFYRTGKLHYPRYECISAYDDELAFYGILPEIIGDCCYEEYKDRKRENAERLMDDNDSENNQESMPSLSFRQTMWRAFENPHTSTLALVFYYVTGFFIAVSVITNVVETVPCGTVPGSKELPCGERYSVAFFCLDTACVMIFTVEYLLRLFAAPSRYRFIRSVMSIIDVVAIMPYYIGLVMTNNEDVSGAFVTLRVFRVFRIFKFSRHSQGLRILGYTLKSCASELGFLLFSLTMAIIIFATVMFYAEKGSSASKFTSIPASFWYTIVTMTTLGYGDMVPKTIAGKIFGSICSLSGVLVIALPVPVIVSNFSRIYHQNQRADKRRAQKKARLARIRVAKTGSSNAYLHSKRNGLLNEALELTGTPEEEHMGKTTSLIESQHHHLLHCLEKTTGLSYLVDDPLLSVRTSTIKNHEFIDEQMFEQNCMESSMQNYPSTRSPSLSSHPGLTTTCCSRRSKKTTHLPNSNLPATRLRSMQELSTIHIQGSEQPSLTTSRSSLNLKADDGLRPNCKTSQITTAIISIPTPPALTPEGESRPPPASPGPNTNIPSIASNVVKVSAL
In words: In vitro ion channel function. The class given is cell-based. To be noted: Ito/Kv4.3 IC50, Transient outward K^+ early repolarization.
From the text: as §2

The subject of data set [17] is mammalian myeloid cell lines. Put plainly: myeloid cytotoxicity (growth inhibition). The class given is cell-based. Particulars: read-out: Myeloid IC50. As to the method:
as §1

Data set [18] concerns mammalian erythroid cell lines. In words: erythroid cytotoxicity (growth inhibition). The class given is cell-based. Particulars: read-out: Erythroid IC50. Here is the method: as §1

Structures are written as SMILES. In brackets after ≈: the same amount, converted by molar mass.

hCav1.2, sequence (P54289 25-1103): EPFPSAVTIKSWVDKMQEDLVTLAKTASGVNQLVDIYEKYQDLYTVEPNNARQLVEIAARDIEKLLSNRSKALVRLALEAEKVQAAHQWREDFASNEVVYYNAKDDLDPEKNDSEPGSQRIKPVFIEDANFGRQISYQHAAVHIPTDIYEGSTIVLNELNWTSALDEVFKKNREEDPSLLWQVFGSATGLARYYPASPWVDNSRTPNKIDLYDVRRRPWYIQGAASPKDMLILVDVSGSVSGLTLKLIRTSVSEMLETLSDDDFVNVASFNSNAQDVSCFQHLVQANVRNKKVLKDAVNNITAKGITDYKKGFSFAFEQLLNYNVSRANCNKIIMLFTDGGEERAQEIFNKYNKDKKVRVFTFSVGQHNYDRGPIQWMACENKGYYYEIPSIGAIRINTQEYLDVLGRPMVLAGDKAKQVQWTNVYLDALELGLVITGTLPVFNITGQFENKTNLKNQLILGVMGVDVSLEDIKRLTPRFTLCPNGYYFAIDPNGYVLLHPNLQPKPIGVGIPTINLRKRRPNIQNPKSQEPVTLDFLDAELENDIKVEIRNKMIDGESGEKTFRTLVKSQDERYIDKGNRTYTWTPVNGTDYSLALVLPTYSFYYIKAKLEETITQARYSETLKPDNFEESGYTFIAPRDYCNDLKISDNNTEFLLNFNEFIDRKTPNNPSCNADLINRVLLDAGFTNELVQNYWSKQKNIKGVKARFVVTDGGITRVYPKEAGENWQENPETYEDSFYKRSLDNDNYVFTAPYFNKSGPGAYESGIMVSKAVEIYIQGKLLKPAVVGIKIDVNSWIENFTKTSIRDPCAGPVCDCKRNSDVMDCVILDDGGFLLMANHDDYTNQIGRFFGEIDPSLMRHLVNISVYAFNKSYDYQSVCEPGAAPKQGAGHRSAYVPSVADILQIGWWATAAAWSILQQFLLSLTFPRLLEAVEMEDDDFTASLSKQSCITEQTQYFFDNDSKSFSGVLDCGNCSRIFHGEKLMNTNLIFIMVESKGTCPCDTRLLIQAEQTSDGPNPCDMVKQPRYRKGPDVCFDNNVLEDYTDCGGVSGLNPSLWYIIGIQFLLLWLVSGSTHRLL
hCav1.2, sequence (Q13936 whole entry): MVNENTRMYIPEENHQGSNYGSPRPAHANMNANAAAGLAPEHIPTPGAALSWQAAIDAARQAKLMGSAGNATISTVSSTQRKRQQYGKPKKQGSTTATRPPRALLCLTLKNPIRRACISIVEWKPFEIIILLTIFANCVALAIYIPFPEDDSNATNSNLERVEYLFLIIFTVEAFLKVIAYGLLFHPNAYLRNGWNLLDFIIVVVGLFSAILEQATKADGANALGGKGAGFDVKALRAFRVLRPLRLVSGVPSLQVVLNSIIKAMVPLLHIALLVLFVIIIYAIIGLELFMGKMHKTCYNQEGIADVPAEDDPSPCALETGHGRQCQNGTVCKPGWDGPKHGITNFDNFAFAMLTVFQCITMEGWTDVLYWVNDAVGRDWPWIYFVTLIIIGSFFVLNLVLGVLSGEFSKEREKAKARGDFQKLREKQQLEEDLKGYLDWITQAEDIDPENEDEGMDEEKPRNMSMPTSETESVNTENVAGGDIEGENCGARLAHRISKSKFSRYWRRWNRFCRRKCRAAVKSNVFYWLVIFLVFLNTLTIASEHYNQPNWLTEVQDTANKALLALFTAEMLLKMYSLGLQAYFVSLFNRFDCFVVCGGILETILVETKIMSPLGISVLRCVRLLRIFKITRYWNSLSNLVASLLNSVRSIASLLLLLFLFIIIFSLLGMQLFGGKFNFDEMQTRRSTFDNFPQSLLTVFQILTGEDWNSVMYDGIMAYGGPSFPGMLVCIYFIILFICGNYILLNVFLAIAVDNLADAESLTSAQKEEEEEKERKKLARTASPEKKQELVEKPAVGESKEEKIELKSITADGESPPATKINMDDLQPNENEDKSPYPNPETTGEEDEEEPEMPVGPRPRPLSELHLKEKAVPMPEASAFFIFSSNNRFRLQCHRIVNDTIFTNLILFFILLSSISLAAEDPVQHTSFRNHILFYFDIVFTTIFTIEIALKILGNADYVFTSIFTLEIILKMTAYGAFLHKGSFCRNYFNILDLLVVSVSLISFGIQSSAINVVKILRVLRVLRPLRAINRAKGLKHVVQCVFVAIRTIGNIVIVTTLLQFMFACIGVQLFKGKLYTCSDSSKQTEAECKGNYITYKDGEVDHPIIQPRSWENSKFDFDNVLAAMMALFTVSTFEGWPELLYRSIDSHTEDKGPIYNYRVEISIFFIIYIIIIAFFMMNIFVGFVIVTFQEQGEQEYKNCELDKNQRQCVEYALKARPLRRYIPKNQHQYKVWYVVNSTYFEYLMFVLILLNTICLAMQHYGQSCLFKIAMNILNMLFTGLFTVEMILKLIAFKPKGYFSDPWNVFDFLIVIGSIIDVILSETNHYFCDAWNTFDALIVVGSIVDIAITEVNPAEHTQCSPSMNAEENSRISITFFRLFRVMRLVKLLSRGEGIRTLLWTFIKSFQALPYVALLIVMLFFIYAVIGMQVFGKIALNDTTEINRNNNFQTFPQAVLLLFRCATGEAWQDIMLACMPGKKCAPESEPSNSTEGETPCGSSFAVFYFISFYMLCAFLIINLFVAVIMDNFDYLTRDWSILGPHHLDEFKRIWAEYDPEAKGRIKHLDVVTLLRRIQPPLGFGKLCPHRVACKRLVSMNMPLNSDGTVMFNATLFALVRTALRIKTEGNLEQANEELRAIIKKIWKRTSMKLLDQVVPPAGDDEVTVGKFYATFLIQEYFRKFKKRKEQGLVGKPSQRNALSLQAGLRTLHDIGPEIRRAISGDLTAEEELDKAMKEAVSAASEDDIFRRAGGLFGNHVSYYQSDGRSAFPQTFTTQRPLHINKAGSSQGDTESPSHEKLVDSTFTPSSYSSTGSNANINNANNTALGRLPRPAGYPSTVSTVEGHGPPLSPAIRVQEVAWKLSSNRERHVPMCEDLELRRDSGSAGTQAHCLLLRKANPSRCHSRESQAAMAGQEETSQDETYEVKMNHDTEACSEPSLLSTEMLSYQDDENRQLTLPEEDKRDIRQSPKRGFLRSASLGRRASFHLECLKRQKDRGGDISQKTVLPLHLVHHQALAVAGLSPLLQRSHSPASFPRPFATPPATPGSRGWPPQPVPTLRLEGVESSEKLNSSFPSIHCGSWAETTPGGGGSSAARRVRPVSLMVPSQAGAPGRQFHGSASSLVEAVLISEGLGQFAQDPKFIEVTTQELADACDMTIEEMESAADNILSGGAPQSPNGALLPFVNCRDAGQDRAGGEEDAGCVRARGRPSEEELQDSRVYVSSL
hCav1.2, sequence (Q08289 whole entry, further chain): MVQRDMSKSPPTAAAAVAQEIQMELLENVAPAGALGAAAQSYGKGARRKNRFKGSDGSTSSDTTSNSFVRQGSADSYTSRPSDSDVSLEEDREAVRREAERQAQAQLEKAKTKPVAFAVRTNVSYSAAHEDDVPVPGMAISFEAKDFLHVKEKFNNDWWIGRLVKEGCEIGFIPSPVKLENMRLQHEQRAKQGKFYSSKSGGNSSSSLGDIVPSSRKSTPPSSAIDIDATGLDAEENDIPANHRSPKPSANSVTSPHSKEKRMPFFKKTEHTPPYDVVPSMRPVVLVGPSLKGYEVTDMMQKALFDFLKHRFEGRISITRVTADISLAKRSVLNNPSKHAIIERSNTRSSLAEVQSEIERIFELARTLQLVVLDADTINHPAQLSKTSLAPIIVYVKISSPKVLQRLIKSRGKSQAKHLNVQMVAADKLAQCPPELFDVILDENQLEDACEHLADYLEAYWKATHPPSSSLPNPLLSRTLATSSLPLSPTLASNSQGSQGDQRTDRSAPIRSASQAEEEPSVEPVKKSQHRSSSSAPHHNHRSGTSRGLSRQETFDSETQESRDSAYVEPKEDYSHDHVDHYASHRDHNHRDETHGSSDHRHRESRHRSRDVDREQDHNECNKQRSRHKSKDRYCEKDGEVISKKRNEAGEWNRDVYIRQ

In the case of `Cc1noc2c(F)c3c(cc12)CC1(C(=O)NC(=O)NC1=O)[C@H]1[C@H](C)O[C@H](C)CN31` [Compound 5, (2R,4S,4aS)-11-Fluoro-2,4,8-trimethyl-2,4,4a,6-tetrahydro-1H,1'H-spiro[isoxazolo[4,5-g][1,4]oxazino[4,3-a]quinoline-5,5'-pyrimidine]-2',4',6'(3'H)-trione], the “MIC: S. aureus AP607004 (MRQR)” value in data set [1] amounted to 0.5 µg/mL (≈ 1.24 µM). Besides, the “MIC: S. pneumoniae ARC2205 (ERQR)” value in data set [2] came out at 2.0 µg/mL (≈ 4.97 µM). For the same molecule, the “MIC: S. pneumoniae ATCC49619” value in [3] was 1.0 µg/mL (≈ 2.49 µM). In addition, in data set [4], the “MIC: S. aureus ARC516” value came out at 0.25 µg/mL (≈ 0.621 µM). In addition, the “Dog F” value in data set [5] is listed as 47%. In [5], the clearance is 5.3 mL/min/kg. For the same molecule, the IC50 was above 100 µM in data set [6]; above 100 µM in [12]; above 80 µM in data set [13]; above 100 µM in data set [14]; above 100 µM in data set [15]; above 100 µM in data set [16]. Further, the “MIC: N. gonorrhoeae ARC4676 (QR)” value in data set [7] came to 0.5 µg/mL (≈ 1.24 µM). In addition, the “MIC: N. gonorrhoeae ATCC49226” value in [8] amounted to 0.5 µg/mL (≈ 1.24 µM). The fraction unbound in data set [9] amounted to 0.094. In [10], this molecule returned a solubility of 210 µM (≈ 84.5 µg/mL). For the same molecule, the “Micronucleus NOEL” value in data set [11] was 50 µM. The “concentration giving a measurable genotoxicity signal in the in vitro MMA” value in [11] (mouse) turned out to be 100 µM.
Take `C[C@@H]1CN2c3c(cc4c(C(=O)NCC(F)(F)F)noc4c3F)CC3(C(=O)NC(=O)NC3=O)[C@H]2[C@H](C)O1` [Compound 7]: the “MIC: S. aureus AP607004 (MRQR)” value in data set [1] came out at 0.25 µg/mL (≈ 0.487 µM). Moreover, the “MIC: S. pneumoniae ARC2205 (ERQR)” value in data set [2] came to 0.125 µg/mL (≈ 0.243 µM). Also, the “MIC: S. pneumoniae ATCC49619” value in data set [3] worked out at 0.125 µg/mL (≈ 0.243 µM). Also, the “MIC: S. aureus ARC516” value in data set [4] was determined as 0.125 µg/mL (≈ 0.243 µM). For the same molecule, the “Dog F” value in data set [5] was 74%. In addition, the clearance in [5] is 5.8 mL/min/kg. For the same molecule, the IC50 is 43 µM in data set [17]; 91 µM in data set [6]; 95 µM in [18]; above 100 µM in data set [12]; above 100 µM in data set [13]; above 100 µM in [14]. Further, the results for the IC50 in data set [15] and in data set [16] were above 100 µM and above 90 µM, respectively. Moreover, the “MIC: N. gonorrhoeae ARC4676 (QR)” value in [7] amounted to 0.25 µg/mL (≈ 0.487 µM). Also, in [8], the “MIC: N. gonorrhoeae ATCC49226” value amounted to 0.25 µg/mL (≈ 0.487 µM). In [9], this molecule showed a fraction unbound of 0.13. Moreover, the solubility in [10] turned out to be 77 µM (≈ 39.5 µg/mL). In addition, the “Micronucleus NOEL” value in data set [11] came out at 100 µM.
